# Results reported in PMC8646019, “Azvudine is a thymus-homing anti-SARS-CoV-2 drug effective in treating COVID-19 patients” (Signal Transduction and Targeted Therapy, 2021).
# Values joined by “and” are separate entries in the source; they are usually repeats but may differ in a detail not shown here. Equal values may be shown once. “Also recorded” adds a separate entry of the source.
# Experiments:
# PBMC = format: in vivo, rhesus macaques; settings: n = 4 for each group, with time, vs untreated
# thymus cells = format: in vivo, rhesus macaques
# SARS-CoV-2 [1] = assay: Clinical trial of FNC on compassionate use in COVID-19 patients
# viral replication = settings: FNC compound itself, not phosphorylated; cited from earlier work
# SARS-CoV-2 [2] = assay: SARS-CoV-2 infected rhesus macaques treated with FNC (viral load, blood tests, histology, X-ray); format: in vivo
# Procedure: RM monkeys were used to learn whether FNC could inhibit SARS-CoV-2 in vivo. In this experiment, eight monkeys were first infected with SARS-CoV-2 using the protocol established previously with an infection dose of 10^6 pfu per monkey.[18] Among the eight animals, four were untreated (as vehicle control; two male and two female) and four were treated with FNC (0.07 mg/kg, qd, oral; two male and two female) 12 h post-infection. The treatment continued for 7 days from Day 1 to Day 7. The experiment was terminated on Day 8 after viral infection. Clinical manifestations, blood indications, and viral load in swabs and blood samples was monitored during the course, and organs were examined after euthanasia at 8 dpi. The experimental protocol is shown in Supplementary Fig. 5.
# Fig. 3 FNC inhibited SARS-CoV-2 and treated COVID-19 in vivo. Eight RM monkeys were inoculated with SARS-CoV-2, followed by vehicle or FNC treatment 12 h post infection and continued for 7 days (see Materials and methods). […] The regions of interest (ROI) are boxed in white, and their magnified photos are shown below. Scale bars, 500 µm (up) and 20 µm (below). c White blood cells (WBC), neutrophil granulocytes (NG), monocytes (MC), and platelets basically remained stable by FNC after SARS-CoV-2 infection. d FNC increased the percent of lymphocytes, alleviated CRP production, and protected the heart and liver functions. Data are presented as mean ± SEM (n = 4); *p < 0.05, infected monkeys in FNC group vs. infected monkeys in the untreated group, by Mann–Whitney U test. CRP C reaction protein, AST aspartate aminotransferase TEXT PRINTED IN THE PICTURE: (a) FNC: Lung Viral load (copies /g): ND (17031); Lung Viral load (copies /g): ND (17374); Thymus Viral load (copies /g): ND (17017); Thymus Viral load (copies /g): ND (17031); Thymus Viral load (copies /g): ND (17368); Thymus Viral load (copies /g): ND (17374) DOUBTS OF THE COPYIST ABOUT THIS PICTURE: Panel a: the only printed results are "ND" labels over single animal numbers. The red ones (FNC group) are given. The black ND labels of the untreated group (Lung 17032; Thymus 17032, 17041) are left out because no substance was given. / Panel d: 0.083 printed in the CRP and AST plots is taken as a p value and left out.
# The rhesus macaques’ experiment was done by following the method described before^1,2. Briefly, healthy rhesus macaques (4 male and 4 female, 3-4 years old) were used for the study. SARS-CoV-2 was from the Center of Diseases Control, Guangdong, China, and amplified in the Vero-E6 cells. Animal groups and experimental schedules were outlined in Fig S4. We inoculated rhesus macaques with 10^6 pfu/ml SARS-CoV-2 intratracheally (0.5ml) and intranasally (0.5ml). FNC (0.07mg/kg, qd, orally) was given 12 h after viral inoculation and continued for 7 days. The animals were monitored daily for physical examination. Chest X-ray radiograph of the anaesthetized monkeys was done with 55-75v and 8-12.5mA with the Mobile digital medical X-ray photography system (MobileCooper, Browiner China).
# Quantification of viral genome in swabs and tissue samples was done as described before^1. Viral genome copy in samples were quantified with real time RT-PCR, using TaqMan Fast Virus 1-Step Master Mix (ThermoFisher, US) and conducted on the CFX384 Touch Real-Time PCR Detection System (Biorad, US). Purified RNA of SARS-CoV-2 served as a standard curve. The operation conditions of RT-PCR were set as following: 25℃ for 2min, 50℃ for 15min, 95℃ for 2min, then 40 cycles at 95℃ 5sec and 60℃ 31sec. Primers/probe specific for the NP gene were synthesized based on sequences from China CDC: Target-2-F:GGGGAA […],
# By the end of the experiment, major organs of the monkeys were taken and checked with naked eye examination. Tests for blood biochemistry and hematology indexes, including lymphocyte analysis and organ function assays, were done based on previous reports^1,2. […]
# [3] = FNC-treated monkey #17368, scRNA-seq
# [4] = drug combination no: FNC only, N = 15
# [5] = drug combination no: FNC only, N = 15, mean ± SD
# [6] = drug combination yes: FNC plus TCM or/and other antivirals, N = 16, mean ± SD
# [7] = individual COVID-19 patient (one per table line)
# [8] = moderate COVID-19, n = 26, mean ± SD
# [9] = severe COVID-19, n = 5, mean ± SD
# [10] = FNC-treated monkeys vs untreated
compound,measurement,setting,value
"[N-]=[N+]=N[C@]1(CO)O[C@@H](n2ccc(N)nc2=O)[C@@H](F)[C@@H]1O [FNC, 2′-deoxy-2′-β-fluoro-4′-azidocytidine]","percentage of CD3+, CD4+, and CD8+ cells in the peripheral blood",PBMC,increased
same,Proportion of B cells in thymus,thymus cells; [3],4.1%
same,Proportion of CD4 cells in thymus,thymus cells; [3],17.5%
same,Proportion of CD8 cells in thymus,thymus cells; [3],22.8%
same,Proportion of NKT cells in thymus,thymus cells; [3],4.6%
same,"expression of IL-4, IL-13, and IL-10 in the thymus cells",thymus cells; FNC-treated monkey #17368 vs untreated #17041,elevated
same,Recovery rate,SARS-CoV-2 [1]; all 31 COVID-19 patients,100% (31/31)
same,"Time from FNC treatment to SARS-CoV-2 negative conversion, median",SARS-CoV-2 [1]; all 31 COVID-19 patients,3.0 days
same,"Time from FNC treatment to SARS-CoV-2 negative conversion, range",SARS-CoV-2 [1]; all 31 COVID-19 patients,1 to 9 days
same,"Time from FNC treatment to discharge from the hospital, average",SARS-CoV-2 [1]; all 31 COVID-19 patients,9.00 ± 4.93 days and 9.00 days
same,"Time from FNC treatment to discharge from the hospital, median",SARS-CoV-2 [1]; all 31 COVID-19 patients,9.0 days
same,"Time from FNC treatment to discharge from the hospital, range",SARS-CoV-2 [1]; all 31 COVID-19 patients,2 to 25 days
same,deaths in the trial,SARS-CoV-2 [1]; all 31 COVID-19 patients,No patients died
same,hospital discharge rate,SARS-CoV-2 [1]; all 31 COVID-19 patients,100%
same,"viral ribonucleic acid negative conversion, share of patients",SARS-CoV-2 [1]; all 31 COVID-19 patients,100%
same,"Time from FNC treatment to SARS-CoV-2 negative conversion, average","SARS-CoV-2 [1]; all 31 COVID-19 patients, oral FNC 5 mg qd",3.29 ± 2.22 days and 3.29 days
same,Recovery rate,SARS-CoV-2 [1]; [4],100% (16/16)
same,Side effect,SARS-CoV-2 [1]; [4],13.3% (2/15)
same,Time from FNC treatment to SARS-CoV-2 negative conversion,SARS-CoV-2 [1]; [5],2.13 ± 1.30 days
same,Time from FNC treatment to discharge from the hospital,SARS-CoV-2 [1]; [5],8.67 ± 6.24 days
same,Recovery rate,"SARS-CoV-2 [1]; drug combination yes, N = 16",100% (16/16)
same,Side effect,"SARS-CoV-2 [1]; drug combination yes, N = 16",18.8% (3/16)
same,Time from FNC treatment to SARS-CoV-2 negative conversion,SARS-CoV-2 [1]; [6],4.38 ± 2.39 days
same,Time from FNC treatment to discharge from the hospital,SARS-CoV-2 [1]; [6],9.31 ± 3.46 days
same,Side effect,SARS-CoV-2 [1]; [7],"Dizziness (fist day); also recorded: Low counts of Platelet and Fibrinogen (first day); also recorded: Dizziness, Nausea, Vomit (first day); also recorded: Dizziness, Insomnia, Vomit (first day)"
same,Time from FNC treatment to discharge from the hospital,SARS-CoV-2 [1]; [7],6 days and 7 days and 5 days
same,Time from FNC treatment to SARS-CoV-2 negative conversion,SARS-CoV-2 [1]; individual COVID-19 patient (one per table line; dosage and combination treatment as in the line),6 days
same,Recovery rate,"SARS-CoV-2 [1]; moderate COVID-19, n = 26",100% (26/26)
same,Time from FNC treatment to SARS-CoV-2 negative conversion,SARS-CoV-2 [1]; [8],3.35 ± 2.13 days
same,Time from FNC treatment to discharge from the hospital,SARS-CoV-2 [1]; [8],9.65 ± 4.91 days
same,Recovery rate,"SARS-CoV-2 [1]; self-controlled comparison, 11 patients",100% (11/11)
same,Time from drug treatment to SARS-CoV-2 negative conversion,"SARS-CoV-2 [1]; self-controlled comparison, 11 patients first treated with known antivirals, then FNC alone, mean ± SD",1.73 ± 0.79 days
same,Time from FNC treatment to discharge from the hospital,"SARS-CoV-2 [1]; self-controlled comparison, 11 patients, mean ± SD",9.09 ± 7.27 days
same,Recovery rate,"SARS-CoV-2 [1]; severe COVID-19, n = 5",100% (5/5)
same,Side effect,"SARS-CoV-2 [1]; severe COVID-19, n = 5",40% (2/5)
same,Time from FNC treatment to SARS-CoV-2 negative conversion,SARS-CoV-2 [1]; [9],3.00 ± 2.92 days
same,Time from FNC treatment to discharge from the hospital,SARS-CoV-2 [1]; [9],5.60 ± 3.78 days
same,inhibiting viral replication in vitro,viral replication,almost inactive
same,CK and AST levels,SARS-CoV-2 [2]; [10],"decreased CK and AST levels, though insignificantly"
same,body temperature and body weight changes after SARS-CoV-2 infection,SARS-CoV-2 [2]; [10],not different
same,lesions in the lung (HE staining),"SARS-CoV-2 [2]; RM monkeys, FNC 0.07 mg/kg qd oral vs untreated",reduced the lesions substantially
same,"viral load in nasal swabs, blood, lungs and thymus","SARS-CoV-2 [2]; RM monkeys, FNC 0.07 mg/kg qd oral, 7 days, vs untreated",significantly reduced viral load
same,ground-glass opacities in chest X-ray,"SARS-CoV-2 [2]; RM monkeys, FNC 0.07 mg/kg, qd, orally",lessened ground-glass opacities
same,viral load in the thymus,"SARS-CoV-2 [2]; four virus (+) monkeys treated with FNC, termination of the experiment",negative
